This is an account of results in patent publication US10604555B2, “GIP derivatives and uses thereof” (priority 2018, dated 2020).

*1 amine or outer side, *2 acyl side, *3 side chain or, on linkers, in order; H or OH if unused. Where a SMILES comes first, the peptide text is derived from it. Side-chain parts run from the residue outwards. [ ]: non-standard residue; d: D form. The star is where a group is joined. C18 diacid = O=C(O)CCCCCCCCCCCCCCCCC(=O)*; γGlu = O=C(O)[C@H](CCC(=O)[*:2])N[*:1]; Nle = CCCC[C@H](N)C(=O)O; Aib = CC(C)(N)C(=O)O

This test concerns the target T1, human GIP receptor (Homo sapiens, UniProt P48546).
T1 construct: expressed in transfected cells; host or cells: BHK (parent line BHKTS13), BHK CRE luc2P hGIPR clone #5
T1 sequence (P48546 22-466): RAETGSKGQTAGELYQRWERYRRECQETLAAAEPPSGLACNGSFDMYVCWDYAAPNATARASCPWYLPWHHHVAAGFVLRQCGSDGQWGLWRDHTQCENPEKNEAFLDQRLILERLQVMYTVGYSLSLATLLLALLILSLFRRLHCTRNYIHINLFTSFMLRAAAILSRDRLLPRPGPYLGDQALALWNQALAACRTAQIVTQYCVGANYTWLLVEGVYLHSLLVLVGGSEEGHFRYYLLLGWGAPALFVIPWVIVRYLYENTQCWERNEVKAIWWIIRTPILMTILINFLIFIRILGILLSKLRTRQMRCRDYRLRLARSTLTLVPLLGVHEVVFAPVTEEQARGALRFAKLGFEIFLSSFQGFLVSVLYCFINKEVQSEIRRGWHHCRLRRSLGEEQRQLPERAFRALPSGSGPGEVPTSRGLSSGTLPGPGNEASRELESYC
The test can be described thus: In vitro potency (CRE luciferase; whole cells), BHK CRE luc2P hGIPR. As to conditions: 0.2% HSA. The format is cell-based. The method, then: In Vitro Potency (CRE Luciferase; Whole Cells)
The in vitro potency is the measure of human GIP, GLP-1 or glucagon receptor activation, respectively, in a whole cell assay.
In vitro potency was determined by measuring the response of the human GIP, GLP-1 or glucagon receptor in a reporter gene assay in individual cell lines. […] When the respective receptor is activated it results in the production of cAMP, which in turn results in the luciferase protein being expressed. When assay incubation is completed the luciferase substrate (luciferin) is added and the enzyme converts luciferin to oxyluciferin to produce bioluminescence. The luminescence is measured as the readout for the assay.
The cells were derived from a clone containing the CRE luciferase element and were established by further transfection with the respective receptor to obtain the current clone.
The cells were cultured at 5% CO2 in Cell Culture Medium. They were aliquoted and stored in liquid nitrogen. The cells were kept in passage and were seeded out the day before each assay.
The Assay Buffer consisted of 1% ovalbumin and 0.1% Pluronic F-68 in Assay Medium with the addition of human serum albumin at twice the indicated concentrations.
1) Cells were plated at 5000 cells/well and incubated overnight.
2) Cells were washed three times in PBS.
3) Assay Medium (50 μl aliquot) with or without serum albumin was added to each well in the assay plate.
4) Stocks of the test compounds and reference compounds were diluted to a concentration of 0.2 μM in Assay Buffer. […] 8) The cells were washed three times with PBS plus some liquid in each well. 9) A 100 μl aliquot of steadylite plus reagent was added to each well of the assay plate (reagent was light sensitive). 10) Each assay plate was covered with aluminum foil to protect it from light and shaken for 30 min at room temperature. 11) Each assay plate was read in a microtiter plate reader. Calculations and Results
The data from the microtiter plate reader was transferred to GraphPad Prism software. The software performs a non-linear regression (log(agonist) vs response).
A minimum of two replicates was measured for each sample. The reported values are averages of the replicates.

The EC50 is the concentration needed to bring the measured effect to its halfway point. A lower EC50 goes with greater potency. For `CCCC[C@H](NC(=O)[C@H](C)NC(=O)[C@@H](NC(=O)[C@H](CO)NC(=O)[C@H](Cc1ccc(O)cc1)NC(=O)[C@H](CC(=O)O)NC(=O)[C@H](CO)NC(=O)[C@@H](NC(=O)[C@H](Cc1ccccc1)NC(=O)[C@@H](NC(=O)CNC(=O)[C@H](CCC(=O)O)NC(=O)C(C)(C)NC(=O)[C@@H](N)Cc1ccc(O)cc1)[C@@H](C)O)[C@@H](C)CC)[C@@H](C)CC)C(=O)N[C@@H](CC(=O)O)C(=O)N[C@@H](CCCCN)C(=O)N[C@H](C(=O)N[C@@H](CCCNC(=N)N)C(=O)N[C@@H](CCC(N)=O)C(=O)N[C@@H](CCC(=O)O)C(=O)N[C@@H](CC(=O)O)C(=O)N[C@@H](Cc1ccccc1)C(=O)N[C@H](C(=O)N[C@@H](CCCCNC(=O)CC[C@H](NC(=O)CC[C@H](NC(=O)CC[C@H](NC(=O)CCCCCCCCCCCCCCCCC(=O)O)C(=O)O)C(=O)O)C(=O)O)C(=O)N[C@@H](Cc1c[nH]c2ccccc12)C(=O)N[C@@H](CC(C)C)C(=O)N[C@@H](CC(C)C)C(=O)N[C@@H](C)C(=O)N[C@@H](CCC(N)=O)C(=O)N[C@@H](CCCCN)C(=O)NCC(=O)O)C(C)C)[C@@H](C)CC` [Compound 9, N{Epsilon-24}-[(4S)-4-carboxy-4-[[(4S)-4-carboxy-4-[[(4S)-4-carboxy-4-(17-carboxyheptadecanoylamino)butanoyl]amino]butanoyl]amino]butanoyl]-[Aib2,Nle14,Arg18,Glu20,Lys24]-hGIP(1-31)] (H-Y[Aib]EGTFISDYSIA[Nle]DKIRQEDFVK([γGlu-γGlu-γGlu-C18 diacid])WLLAQKG-OH; N-terminus and C-terminus assumed), the half-maximal effective concentration (EC50) amounted to 0.0629 nM.
As for `CCCC[C@H](NC(=O)[C@H](C)NC(=O)[C@@H](NC(=O)[C@H](CO)NC(=O)[C@H](Cc1ccc(O)cc1)NC(=O)[C@H](CC(=O)O)NC(=O)[C@H](CO)NC(=O)[C@@H](NC(=O)[C@H](Cc1ccccc1)NC(=O)[C@@H](NC(=O)CNC(=O)[C@H](CCC(=O)O)NC(=O)C(C)(C)NC(=O)[C@@H](N)Cc1ccc(O)cc1)[C@@H](C)O)[C@@H](C)CC)[C@@H](C)CC)C(=O)N[C@@H](CC(=O)O)C(=O)N[C@@H](CCCCN)C(=O)N[C@H](C(=O)N[C@@H](Cc1c[nH]cn1)C(=O)N[C@@H](CCC(N)=O)C(=O)N[C@@H](CCC(N)=O)C(=O)N[C@@H](CC(=O)O)C(=O)N[C@@H](Cc1ccccc1)C(=O)N[C@H](C(=O)N[C@@H](CCCCNC(=O)CC[C@H](NC(=O)CC[C@H](NC(=O)CC[C@H](NC(=O)CCCCCCCCCCCCCCCCC(=O)O)C(=O)O)C(=O)O)C(=O)O)C(=O)N[C@@H](Cc1c[nH]c2ccccc12)C(=O)N[C@@H](CC(C)C)C(=O)N[C@@H](CC(C)C)C(=O)N[C@@H](C)C(=O)N[C@@H](CCC(N)=O)C(=O)N[C@@H](CCCCN)C(=O)NCC(=O)O)C(C)C)[C@@H](C)CC` [Compound 2, N{Epsilon-24}-[(4S)-4-carboxy-4-[[(4S)-4-carboxy-4-[[(4S)-4-carboxy-4-(17-carboxyheptadecanoylamino)butanoyl]amino]butanoyl]amino]butanoyl]-[Aib2,Nle14,Lys24]-hGIP(1-31)] (H-Y[Aib]EGTFISDYSIA[Nle]DKIHQQDFVK([γGlu-γGlu-γGlu-C18 diacid])WLLAQKG-OH), the figure is 0.0499 nM; as for `CCCC[C@H](NC(=O)[C@H](C)NC(=O)[C@@H](NC(=O)[C@H](CO)NC(=O)[C@H](Cc1ccc(O)cc1)NC(=O)[C@H](CC(=O)O)NC(=O)[C@H](CO)NC(=O)[C@@H](NC(=O)[C@H](Cc1ccccc1)NC(=O)[C@@H](NC(=O)CNC(=O)[C@H](CCC(=O)O)NC(=O)C(C)(C)NC(=O)[C@@H](N)Cc1ccc(O)cc1)[C@@H](C)O)[C@@H](C)CC)[C@@H](C)CC)C(=O)N[C@@H](CC(=O)O)C(=O)N[C@@H](C)C(=O)N[C@H](C(=O)N[C@@H](CCCNC(=N)N)C(=O)N[C@@H](CCC(N)=O)C(=O)N[C@@H](CCC(N)=O)C(=O)N[C@@H](CC(=O)O)C(=O)N[C@@H](Cc1ccccc1)C(=O)N[C@H](C(=O)N[C@@H](CCCCNC(=O)CC[C@H](NC(=O)CC[C@H](NC(=O)CC[C@H](NC(=O)CCCCCCCCCCCCCCCCC(=O)O)C(=O)O)C(=O)O)C(=O)O)C(=O)N[C@@H](Cc1c[nH]c2ccccc12)C(=O)N[C@@H](CC(C)C)C(=O)N[C@@H](CC(C)C)C(=O)N[C@@H](C)C(=O)N[C@@H](CCC(N)=O)C(=O)N[C@@H](CCCCN)C(=O)NCC(=O)O)C(C)C)[C@@H](C)CC` [Compound 13, N{Epsilon-24}-[(4S)-4-carboxy-4-[[(4S)-4-carboxy-4-[[(4S)-4-carboxy-4-(17-carboxyheptadecanoylamino)butanoyl]amino]butanoyl]amino]butanoyl]-[Aib2,Nle14,Ala16,Arg18,Lys24]-hGIP(1-31)] (H-Y[Aib]EGTFISDYSIA[Nle]DAIRQQDFVK([γGlu-γGlu-γGlu-C18 diacid])WLLAQKG-OH; N-terminus and C-terminus assumed), 0.0725 nM.
